One series has as its system Candida albicans. The series is described as follows: Antifungal activity against Candida albicans ATCC 10231 upto 100 ug/mL after 24 hrs by AFST-EUCAST method. The class given is functional, organism-based.
A further series concerns Aspergillus terreus. Put plainly: Antifungal activity against Aspergillus terreus CDC 317 upto 100 ug/mL after 48 hrs by CLSI M38-A broth dilution method. The class given is functional, organism-based. In general terms: Dilution methods test growth across graded concentrations, often in twofold steps.
The next series deals with Candida tropicalis. The series is described as follows: Antifungal activity against Candida tropicalis CECT 11901 upto 100 ug/mL after 24 hrs by AFST-EUCAST method. The class given is functional, organism-based.
The subject of a further series is Pichia kudriavzevii. The series is described as follows: Antifungal activity against Candida krusei ATCC 6258 upto 100 ug/mL after 24 hrs by AFST-EUCAST method. Type of series: functional, organism-based.
Series [1] is described as follows: Cytotoxicity against african green monkey Vero cells after 48 hrs by MTT assay. The class given is cell-based. To be noted: chlorocebus sabaeus. (Tetrazolium dyes change colour on reduction, which living cells bring about.)
Another series has as its system Aspergillus flavus. The series is described as follows: Antifungal activity against Aspergillus flavus ATCC 204304 upto 100 ug/mL after 48 hrs by CLSI M38-A broth dilution method. Type of series: functional, organism-based.
Another series deals with Candida parapsilosis. Put plainly: Antifungal activity against Candida parapsilosis ATCC 22019 upto 100 ug/mL after 24 hrs by AFST-EUCAST method. Type of series: functional, organism-based.
A short description of series [2]: Selectivity index, ratio of CC50 for african green monkey Vero cells to CC50 for human HeLa cells. The class given is functional.
For series [3], the system named is Aspergillus fumigatus. The series is described as follows: Antifungal activity against Aspergillus fumigatus ATCC 204305 after 48 hrs by CLSI M38-A broth dilution method. The class given is functional. To be noted: ATCC 204305, 48 h.
For series [4], the system named is HeLa. The series is described as follows: Cytotoxicity against human HeLa cells after 48 hrs by MTT assay. Type of series: functional.
Series [5] has as its system HeLa. The series is described as follows: Cytotoxicity against human HeLa cells. Type of series: cell-based.
Series [6] relates to Human alphaherpesvirus 1. Put plainly: Antiviral activity against HSV1 infected in human HeLa cells assessed as maximum dose required for highest viral reduction factor preincubated for 0.5 hrs before infection measured after 36 hrs by end point titration technique. Type of series: functional.
The next series deals with Aspergillus niger. The series is described as follows: Antifungal activity against Aspergillus niger ATCC 10124 upto 100 ug/mL after 48 hrs by CLSI M38-A broth dilution method. Type of series: functional, organism-based.
Series [7] deals with Human alphaherpesvirus 1. The series is described as follows: Antiviral activity against HSV1 infected in human HeLa cells assessed as viral reduction factor preincubated for 0.5 hrs before infection measured after 36 hrs by end point titration technique relative to control. The class given is functional.
Series [8] concerns Aspergillus fumigatus. The series is described as follows: Antifungal activity against Aspergillus fumigatus ATCC 204305 upto 100 ug/mL after 48 hrs by CLSI M38-A broth dilution method. Type of series: functional, organism-based.

Values after ≈ are worked out from the molar mass of the structure shown. Active and inactive are the calls of the source. The calls are words filed in the database; no cut-off is given here.

For orientation: MIC means the lowest concentration found to suppress growth. Usually CC50 stands for the concentration giving 50% cytotoxicity. In the case of `CC(C)C1=CC2=CC[C@@H]3[C@](C)(CCC[C@@]3(C)C=O)[C@H]2CC1`, the MIC entry with Candida albicans, with Aspergillus terreus, in the series on Candida tropicalis, in the series on Pichia kudriavzevii, with Aspergillus flavus and in the series with Candida parapsilosis was “inactive” in each case. The MIC entry with Aspergillus niger was “inactive”. Besides, in [1], half-maximal cytotoxicity (CC50 at 48 h) was put at 31.5 µg/mL (≈ 110 µM). In addition, the “Selectivity Index” value in series [2] is 5.6. This compound had an MIC against Aspergillus fumigatus [3] of 50 µg/mL (≈ 175 µM). This compound had a CC50 in the series on HeLa [4] of 5.6 µg/mL (≈ 19.5 µM). In addition, the CC100 in the series on HeLa [5] was greater than 50 µg/mL. Further, the Activity in the series with Human alphaherpesvirus 1 [6] was 12.5 µg/mL; in the series on Human alphaherpesvirus 1 [7], 10.

On to `CC(C)C1=CC2=CC[C@H]3[C@](C)(CO)CCC[C@]3(C)[C@H]2CC1`, for which the MIC result with Candida albicans, in the series on Aspergillus terreus, with Candida tropicalis, with Pichia kudriavzevii, in the series with Aspergillus flavus and in the series on Aspergillus fumigatus [8] was “inactive” in each case. The MIC result with Candida parapsilosis and in the series on Aspergillus niger was “inactive” each time. For the same compound, the CC50 at 48 h in [1] is 12.7 µg/mL (≈ 44 µM). In series [2], the “Selectivity Index” value was 2.4. The same compound registered a CC50 in the series with HeLa [4] of 5.2 µg/mL (≈ 18 µM). Besides, the CC100 with HeLa [5] amounted to 25 µg/mL. Moreover, the Activity in the series on Human alphaherpesvirus 1 [6] came to 6.25 µg/mL; with Human alphaherpesvirus 1 [7], 10.

Regarding `Nc1nc2c(ncn2COCCO)c(=O)[nH]1` [ACYCLOVIR], the CC100 in the series with HeLa [5] is greater than 600 µg/mL. In addition, the Activity came to 6 µg/mL in the series on Human alphaherpesvirus 1 [6] and 10 in the series on Human alphaherpesvirus 1 [7].

For `COC(=O)[C@]1(C)CCC[C@]2(C)C3=C(CC[C@@H]12)CC(=C(C)C)CC3`, the MIC entry in the series on Candida albicans, in the series with Aspergillus terreus, in the series on Candida tropicalis, in the series with Pichia kudriavzevii, with Aspergillus flavus and in the series with Aspergillus fumigatus [8] was “inactive” in each case. Besides, the MIC result in the series with Candida parapsilosis and with Aspergillus niger was “inactive” each time. The same compound showed a half-maximal cytotoxic concentration (CC50) at 48 h in [1] of 19.2 µg/mL (≈ 60.7 µM). Moreover, in series [2], the “Selectivity Index” value is listed as 0.4. In the series on HeLa [4], this compound gave a CC50 of 46.6 µg/mL (≈ 147 µM). This compound registered a CC100 in the series with HeLa [5] of 100 µg/mL. Moreover, the result with Human alphaherpesvirus 1 [7] was inactive.

Regarding `CC(C)=C1CCC2=C(CC[C@H]3[C@](C)(C(=O)O)CCC[C@]23C)C1`, the MIC entry with Candida albicans, in the series with Aspergillus terreus, in the series on Candida tropicalis, in the series with Pichia kudriavzevii, with Aspergillus flavus and in the series with Aspergillus fumigatus [8] was “inactive” in each case. Besides, the MIC result in the series with Candida parapsilosis and in the series on Aspergillus niger was “inactive” throughout. Besides, the CC50 at 48 h in series [1] is 43.9 µg/mL (≈ 145 µM). Moreover, in [2], the “Selectivity Index” value is on record as 0.8. In the series with HeLa [4], this compound gave a CC50 of 53.1 µg/mL (≈ 176 µM). In addition, in the series with HeLa [5], the CC100 was greater than 100 µg/mL. In addition, the figures for the Activity with Human alphaherpesvirus 1 [6] and with Human alphaherpesvirus 1 [7] were 100 µg/mL and 10, respectively.

`CC[C@]1(O)C[C@H]2CN(CCc3c([nH]c4ccccc34)[C@@](C(=O)OC)(c3cc4c(cc3OC)N(C=O)[C@H]3[C@@](O)(C(=O)OC)[C@H](OC(C)=O)[C@]5(CC)C=CCN6CC[C@]43[C@@H]65)C2)C1` [VINCRISTINE] displayed a CC50 at 48 h in [1] of 1.1 µg/mL (≈ 1.33 µM). Also, the “Selectivity Index” value in series [2] was determined as 22. Besides, in the series with HeLa [4], it took 0.05 µg/mL (≈ 0.0606 µM) to reach half-maximal cytotoxicity (CC50).

Turning to `COC(=O)[C@]1(C)CCC[C@@]2(C)[C@H]1CC=C1C=C(C(C)C)CC[C@@H]12` [METHYL ABIETATE], the MIC entry in the series with Candida albicans, in the series on Aspergillus terreus, in the series on Candida tropicalis, in the series with Pichia kudriavzevii, in the series on Aspergillus flavus and with Aspergillus fumigatus [8] was “inactive” in each case. Further, the MIC result in the series on Candida parapsilosis and in the series with Aspergillus niger was “inactive” in each case. This compound had a CC50 at 48 h in series [1] of 49.4 µg/mL (≈ 156 µM). In addition, in [2], the “Selectivity Index” value is listed as 13.7. In addition, the CC50 in the series with HeLa [4] stood at 3.6 µg/mL (≈ 11.4 µM). Besides, the CC100 with HeLa [5] is 50 µg/mL. Also, the Activity in the series with Human alphaherpesvirus 1 [6] came out at 6.25 µg/mL; in the series with Human alphaherpesvirus 1 [7], 10.

Consider `CC(C)=C1CCC2=C(CC[C@H]3[C@](C)(CO)CCC[C@]23C)C1`, for which the MIC entry in the series on Candida albicans, in the series on Aspergillus terreus, with Candida tropicalis, in the series with Pichia kudriavzevii, in the series on Aspergillus flavus and in the series on Aspergillus fumigatus [8] was “inactive” each time. For the same compound, the MIC result in the series with Candida parapsilosis and with Aspergillus niger was “inactive” throughout. The CC50 at 48 h in series [1] came out at 20.2 µg/mL (≈ 70 µM). For the same compound, the “Selectivity Index” value in [2] was found to be 1. Moreover, the CC50 in the series on HeLa [4] came out at 19.7 µg/mL (≈ 68.3 µM). In addition, the CC100 with HeLa [5] is 100 µg/mL. The outcome with Human alphaherpesvirus 1 [7] was inactive.

`CC(C)C1=CC2=CC[C@@H]3[C@](C)(CCC[C@@]3(C)C(=O)O)[C@H]2CC1` [ABIETIC ACID]: the MIC result in the series with Candida albicans, in the series on Aspergillus terreus, with Candida tropicalis, in the series on Pichia kudriavzevii, in the series on Aspergillus flavus and in the series on Aspergillus fumigatus [8] was “inactive” throughout. Moreover, the MIC entry in the series with Candida parapsilosis and in the series on Aspergillus niger was “inactive” each time. This compound also gave a CC50 at 48 h in series [1] of 52.5 µg/mL (≈ 174 µM). The “Selectivity Index” value in [2] came to 3.5. The compound further returned a CC50 with HeLa [4] of 14.9 µg/mL (≈ 49.3 µM). This compound also came in with a CC100 in the series with HeLa [5] greater than 100 µg/mL. The result in the series on Human alphaherpesvirus 1 [7] was inactive.

For `CC(C)=C1CCC2=C(CC[C@H]3[C@](C)(C=O)CCC[C@]23C)C1`, the MIC result with Candida albicans, in the series on Aspergillus terreus, with Candida tropicalis, with Pichia kudriavzevii, with Aspergillus flavus and in the series on Aspergillus fumigatus [8] was “inactive” in each case. In addition, the MIC entry with Candida parapsilosis and in the series with Aspergillus niger was “inactive” each time. In [1], this compound came in with a CC50 at 48 h of 55.3 µg/mL (≈ 193 µM). Further, in series [2], the “Selectivity Index” value is 1.6. It took 33.4 µg/mL (≈ 117 µM) to reach half-maximal cytotoxicity in the series on HeLa [4] (CC50). In addition, the CC100 in the series on HeLa [5] is greater than 100 µg/mL. Further, the outcome in the series with Human alphaherpesvirus 1 [7] was inactive.

(Values after ChEMBL document CHEMBL1158392, “Synthesis and biological evaluation of abietic acid derivatives” (Eur J Med Chem, 2009).)
